System: IgE-immunized Rat Peritoneal Mast Cells
Assay: cells
Settings: Mast cell, read-out: % inhibition of Histamine Release

## CCOC(=O)N1CCC(=C2c3ccc(Cl)cc3CCc3cccnc32)CC1 [Loratadine, ethyl 4-(8-chloro-5,6-dihydro-11H-benzo[5,6]cyclohepta[1,2-b]pyridin-11-ylidene)-1-piperidinecarboxylate]
  inhibition at 0.3 µM: 19.8 ± 5.77%
  inhibition at 1 µM: 27.1 ± 4.72%
  inhibition at 3 µM: 45.8 ± 9.26%
  inhibition at 10 µM: 73.3 ± 16.8%
